These results are taken from ChEMBL document CHEMBL5465560, “Selectivity Literature for EUbOPEN Chemogenomic Library” (2024).

For assay [1], the target named is Calcium/calmodulin-dependent protein kinase type II subunit alpha (Homo sapiens, UniProt Q9UQM7). Nature of the assay: Selectivity interaction (ProQinase) EUB0000171b CAMK2A.
Assay [2] deals with Fibroblast growth factor receptor 1 (Homo sapiens, UniProt P11362). Nature of the assay: Selectivity interaction (KinaseProfiler screening (Millipore)) EUB0000601a FGFR1. The following applies: at 3 µM.
Chain of Fibroblast growth factor receptor 1 (P11362 22-822 limits assumed): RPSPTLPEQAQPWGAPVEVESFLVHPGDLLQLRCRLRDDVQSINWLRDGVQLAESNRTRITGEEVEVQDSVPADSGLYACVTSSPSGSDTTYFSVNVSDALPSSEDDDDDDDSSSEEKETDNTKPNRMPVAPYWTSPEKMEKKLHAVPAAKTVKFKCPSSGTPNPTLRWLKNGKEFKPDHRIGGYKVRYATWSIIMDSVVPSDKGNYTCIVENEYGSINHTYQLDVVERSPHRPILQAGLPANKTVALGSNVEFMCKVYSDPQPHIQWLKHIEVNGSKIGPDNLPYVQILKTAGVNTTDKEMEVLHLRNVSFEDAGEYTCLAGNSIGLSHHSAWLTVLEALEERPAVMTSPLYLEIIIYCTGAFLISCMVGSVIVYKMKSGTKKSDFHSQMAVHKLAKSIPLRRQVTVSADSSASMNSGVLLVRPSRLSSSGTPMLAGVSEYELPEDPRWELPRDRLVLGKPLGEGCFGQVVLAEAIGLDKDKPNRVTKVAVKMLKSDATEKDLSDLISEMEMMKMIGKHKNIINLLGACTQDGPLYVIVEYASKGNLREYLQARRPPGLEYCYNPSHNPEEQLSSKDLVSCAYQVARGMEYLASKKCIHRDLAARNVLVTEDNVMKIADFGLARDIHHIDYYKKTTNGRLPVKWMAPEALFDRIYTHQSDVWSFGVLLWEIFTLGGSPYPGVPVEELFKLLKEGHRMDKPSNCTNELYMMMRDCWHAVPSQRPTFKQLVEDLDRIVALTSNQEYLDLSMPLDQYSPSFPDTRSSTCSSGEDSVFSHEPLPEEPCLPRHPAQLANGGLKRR
Assay [3] has as its target Mitogen-activated protein kinase kinase kinase kinase 1 (Homo sapiens) (UniProt Q92918). As to the kind of experiment: Selectivity interaction (KinomeScan (DiscoverX)) EUB0001079a MAP4K1. The following applies: at 1 µM.
Assay [4] deals with Casein kinase II subunit alpha (Homo sapiens, UniProt P68400). Nature of the assay: Selectivity interaction (Millipore kinase profiler) EUB0000124b CSNK2A1. The following applies: at 10 µM.
Chain of Casein kinase II subunit alpha (P68400 whole entry, looked up): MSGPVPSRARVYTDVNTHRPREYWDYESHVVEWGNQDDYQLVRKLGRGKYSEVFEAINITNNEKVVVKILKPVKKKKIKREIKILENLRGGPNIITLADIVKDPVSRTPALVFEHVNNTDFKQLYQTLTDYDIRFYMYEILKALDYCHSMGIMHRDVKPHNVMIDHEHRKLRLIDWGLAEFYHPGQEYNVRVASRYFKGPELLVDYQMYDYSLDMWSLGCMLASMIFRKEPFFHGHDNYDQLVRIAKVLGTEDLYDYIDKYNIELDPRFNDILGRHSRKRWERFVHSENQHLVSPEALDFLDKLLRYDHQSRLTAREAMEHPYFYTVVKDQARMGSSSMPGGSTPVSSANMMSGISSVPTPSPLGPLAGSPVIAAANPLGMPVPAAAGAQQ
Assay [5] has as its target T1, Dual specificity mitogen-activated protein kinase kinase 5 (Homo sapiens) (UniProt Q13163).
T1 sequence (whole entry): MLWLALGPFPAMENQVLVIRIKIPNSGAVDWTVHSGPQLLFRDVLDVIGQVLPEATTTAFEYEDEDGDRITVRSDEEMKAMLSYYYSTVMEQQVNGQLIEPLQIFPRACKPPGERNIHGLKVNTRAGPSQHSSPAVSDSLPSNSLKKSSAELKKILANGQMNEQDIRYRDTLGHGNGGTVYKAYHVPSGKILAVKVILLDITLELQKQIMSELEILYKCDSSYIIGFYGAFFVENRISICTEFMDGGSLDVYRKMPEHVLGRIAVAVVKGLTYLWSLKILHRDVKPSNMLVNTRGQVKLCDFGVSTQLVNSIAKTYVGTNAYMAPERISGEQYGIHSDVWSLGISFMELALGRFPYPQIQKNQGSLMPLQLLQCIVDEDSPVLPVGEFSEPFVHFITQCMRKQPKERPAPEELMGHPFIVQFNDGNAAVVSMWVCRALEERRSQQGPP
As to the kind of experiment: Selectivity interaction (KinomeScan (DiscoverX)) EUB0000695a MAP2K5. The following applies: at 100 nM.

For assay [6], the target named is T2, Ankyrin repeat and protein kinase domain-containing protein 1 (Homo sapiens) (UniProt Q8NFD2).
T2 sequence (whole entry): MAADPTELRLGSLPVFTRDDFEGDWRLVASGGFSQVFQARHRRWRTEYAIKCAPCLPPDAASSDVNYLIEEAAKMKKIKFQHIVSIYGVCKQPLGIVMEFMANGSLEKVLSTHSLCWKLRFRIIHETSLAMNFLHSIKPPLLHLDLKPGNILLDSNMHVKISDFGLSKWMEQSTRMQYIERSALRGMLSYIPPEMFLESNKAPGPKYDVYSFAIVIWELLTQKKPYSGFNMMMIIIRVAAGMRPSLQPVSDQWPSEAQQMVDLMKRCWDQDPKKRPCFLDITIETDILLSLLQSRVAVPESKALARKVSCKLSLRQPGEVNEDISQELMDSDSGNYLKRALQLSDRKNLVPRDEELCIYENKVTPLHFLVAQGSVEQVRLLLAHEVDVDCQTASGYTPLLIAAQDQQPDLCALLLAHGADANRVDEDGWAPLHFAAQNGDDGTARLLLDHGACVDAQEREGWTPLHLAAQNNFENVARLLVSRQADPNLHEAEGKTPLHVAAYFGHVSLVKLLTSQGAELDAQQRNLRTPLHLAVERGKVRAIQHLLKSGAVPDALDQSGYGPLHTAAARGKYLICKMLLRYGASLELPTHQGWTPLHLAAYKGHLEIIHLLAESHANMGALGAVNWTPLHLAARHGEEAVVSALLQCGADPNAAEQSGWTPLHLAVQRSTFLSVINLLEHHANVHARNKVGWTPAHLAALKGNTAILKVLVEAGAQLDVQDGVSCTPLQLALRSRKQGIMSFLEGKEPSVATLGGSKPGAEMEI
Nature of the assay: Selectivity interaction (KinomeScan (DiscoverX)) EUB0000045b ANKK1.

For assay [7], the target named is T3, Tyrosine-protein kinase Mer (Homo sapiens) (UniProt Q12866).
T3 sequence (whole entry): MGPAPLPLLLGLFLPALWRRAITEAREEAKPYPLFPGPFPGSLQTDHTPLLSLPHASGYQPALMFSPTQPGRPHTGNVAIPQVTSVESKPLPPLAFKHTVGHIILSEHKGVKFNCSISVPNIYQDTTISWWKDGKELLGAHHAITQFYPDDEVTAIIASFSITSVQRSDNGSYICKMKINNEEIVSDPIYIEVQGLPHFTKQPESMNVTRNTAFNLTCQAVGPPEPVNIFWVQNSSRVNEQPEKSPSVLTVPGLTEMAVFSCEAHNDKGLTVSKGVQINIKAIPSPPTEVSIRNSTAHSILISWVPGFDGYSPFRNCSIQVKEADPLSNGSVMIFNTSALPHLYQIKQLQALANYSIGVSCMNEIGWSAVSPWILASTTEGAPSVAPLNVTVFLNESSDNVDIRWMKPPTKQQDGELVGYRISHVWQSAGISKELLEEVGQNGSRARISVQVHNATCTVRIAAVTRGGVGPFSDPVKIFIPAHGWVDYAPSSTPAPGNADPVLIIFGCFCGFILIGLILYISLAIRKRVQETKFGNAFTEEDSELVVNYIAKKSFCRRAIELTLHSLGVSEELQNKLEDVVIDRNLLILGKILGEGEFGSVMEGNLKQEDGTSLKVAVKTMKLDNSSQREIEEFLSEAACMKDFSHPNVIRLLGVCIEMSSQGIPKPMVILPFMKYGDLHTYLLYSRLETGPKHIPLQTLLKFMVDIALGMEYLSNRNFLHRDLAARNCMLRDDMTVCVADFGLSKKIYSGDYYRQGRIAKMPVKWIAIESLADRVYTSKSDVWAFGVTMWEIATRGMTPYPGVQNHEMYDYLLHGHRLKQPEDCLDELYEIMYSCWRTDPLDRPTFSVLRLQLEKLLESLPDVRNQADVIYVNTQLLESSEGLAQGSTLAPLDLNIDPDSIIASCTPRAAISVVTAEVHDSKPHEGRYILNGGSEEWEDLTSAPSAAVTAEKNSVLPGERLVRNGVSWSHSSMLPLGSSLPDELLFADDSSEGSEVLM
As to the kind of experiment: Selectivity interaction (SelectScreen profiling (Invitrogen)) EUB0000607a MERTK. The following applies: at 2 µM.

Assay [8] has as its target Dual specificity mitogen-activated protein kinase kinase 1 (Homo sapiens, UniProt Q02750). Nature of the assay: Selectivity interaction (KinomeScan (DiscoverX)) EUB0000595a MAP2K1. The following applies: at 10 µM.
Assay [9] addresses High affinity nerve growth factor receptor (Homo sapiens, UniProt P04629). Nature of the assay: Selectivity interaction (Kinase panel (literature)) EUB0001199aCl NTRK1. The following applies: at 1 µM.

Chain of Calcium/calmodulin-dependent protein kinase type II subunit alpha (Q9UQM7 whole entry): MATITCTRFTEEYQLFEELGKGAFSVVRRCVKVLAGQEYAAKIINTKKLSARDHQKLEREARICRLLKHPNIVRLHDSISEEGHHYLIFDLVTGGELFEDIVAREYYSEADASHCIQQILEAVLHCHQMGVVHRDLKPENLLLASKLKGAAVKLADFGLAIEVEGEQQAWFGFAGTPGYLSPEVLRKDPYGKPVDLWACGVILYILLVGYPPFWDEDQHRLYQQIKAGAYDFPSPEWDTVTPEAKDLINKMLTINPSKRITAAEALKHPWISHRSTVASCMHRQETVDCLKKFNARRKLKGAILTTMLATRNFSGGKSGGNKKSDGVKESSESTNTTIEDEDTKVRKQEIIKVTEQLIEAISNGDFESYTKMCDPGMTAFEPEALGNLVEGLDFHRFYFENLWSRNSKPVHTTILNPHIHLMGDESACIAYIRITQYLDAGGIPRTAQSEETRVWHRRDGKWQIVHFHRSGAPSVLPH
Chain of Dual specificity mitogen-activated protein kinase kinase 1 (Q02750 whole entry): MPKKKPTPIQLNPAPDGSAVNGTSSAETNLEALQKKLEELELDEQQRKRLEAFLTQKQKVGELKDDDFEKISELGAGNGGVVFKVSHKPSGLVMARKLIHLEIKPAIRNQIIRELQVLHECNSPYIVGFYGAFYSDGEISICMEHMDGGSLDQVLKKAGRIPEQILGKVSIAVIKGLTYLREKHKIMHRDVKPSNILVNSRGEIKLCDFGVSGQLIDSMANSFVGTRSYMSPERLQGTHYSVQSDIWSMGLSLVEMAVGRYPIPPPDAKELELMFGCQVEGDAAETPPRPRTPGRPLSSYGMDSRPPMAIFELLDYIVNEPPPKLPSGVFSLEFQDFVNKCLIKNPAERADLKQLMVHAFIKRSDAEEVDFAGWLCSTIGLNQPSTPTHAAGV
Chain of Mitogen-activated protein kinase kinase kinase kinase 1 (Homo sapiens) (Q92918 whole entry, looked up): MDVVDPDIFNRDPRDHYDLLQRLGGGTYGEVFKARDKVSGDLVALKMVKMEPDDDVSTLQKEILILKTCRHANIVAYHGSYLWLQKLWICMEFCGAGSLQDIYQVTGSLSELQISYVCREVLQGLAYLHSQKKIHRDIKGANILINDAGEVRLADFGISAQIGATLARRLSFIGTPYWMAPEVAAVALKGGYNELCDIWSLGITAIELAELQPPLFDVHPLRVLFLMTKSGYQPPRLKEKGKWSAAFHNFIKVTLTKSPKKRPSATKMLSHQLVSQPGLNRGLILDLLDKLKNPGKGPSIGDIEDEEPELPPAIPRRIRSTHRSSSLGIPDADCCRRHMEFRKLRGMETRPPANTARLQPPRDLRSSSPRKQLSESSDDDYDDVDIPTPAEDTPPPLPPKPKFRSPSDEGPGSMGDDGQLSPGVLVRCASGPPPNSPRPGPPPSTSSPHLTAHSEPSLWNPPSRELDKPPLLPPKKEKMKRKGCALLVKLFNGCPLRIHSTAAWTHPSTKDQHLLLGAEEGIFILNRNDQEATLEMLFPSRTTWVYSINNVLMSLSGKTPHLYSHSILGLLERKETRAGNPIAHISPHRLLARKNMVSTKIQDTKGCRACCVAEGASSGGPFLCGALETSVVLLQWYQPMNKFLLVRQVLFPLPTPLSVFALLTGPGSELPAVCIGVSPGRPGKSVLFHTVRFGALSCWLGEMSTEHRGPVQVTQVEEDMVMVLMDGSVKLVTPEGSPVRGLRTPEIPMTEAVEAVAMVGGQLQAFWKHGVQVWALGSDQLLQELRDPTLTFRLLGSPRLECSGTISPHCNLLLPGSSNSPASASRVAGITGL
Chain of High affinity nerve growth factor receptor (P04629 33-796 limits assumed): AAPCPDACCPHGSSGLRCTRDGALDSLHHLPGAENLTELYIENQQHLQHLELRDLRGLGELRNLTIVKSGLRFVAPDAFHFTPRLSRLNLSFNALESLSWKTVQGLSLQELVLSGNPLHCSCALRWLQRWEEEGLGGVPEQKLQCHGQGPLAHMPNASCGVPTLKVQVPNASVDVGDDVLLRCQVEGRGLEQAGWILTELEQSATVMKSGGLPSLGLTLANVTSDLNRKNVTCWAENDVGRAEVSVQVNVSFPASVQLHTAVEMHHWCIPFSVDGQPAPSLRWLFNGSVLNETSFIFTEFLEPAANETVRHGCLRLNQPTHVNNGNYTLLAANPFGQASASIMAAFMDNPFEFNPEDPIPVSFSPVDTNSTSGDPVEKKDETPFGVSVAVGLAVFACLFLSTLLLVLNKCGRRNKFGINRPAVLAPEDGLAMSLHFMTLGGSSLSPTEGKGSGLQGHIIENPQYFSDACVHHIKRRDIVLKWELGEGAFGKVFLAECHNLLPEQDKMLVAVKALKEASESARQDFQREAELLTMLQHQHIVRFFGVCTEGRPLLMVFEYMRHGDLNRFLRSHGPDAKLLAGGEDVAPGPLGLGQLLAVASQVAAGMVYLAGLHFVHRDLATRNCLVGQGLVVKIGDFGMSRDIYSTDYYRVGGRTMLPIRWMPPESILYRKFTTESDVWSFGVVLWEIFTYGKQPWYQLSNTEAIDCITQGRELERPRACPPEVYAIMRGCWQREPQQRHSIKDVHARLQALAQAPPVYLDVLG

Consider `C=CC(=O)Nc1cccc(C(=O)Nc2ccc(Nc3cc(-c4[nH]c(SC)nc4C)ccn3)cc2)c1`, for which the % of control in assay [1] (at 1 µM) and in assay [1] (at 5 µM) was 90% in each case.

With `CCc1cc(Nc2nccc(-c3c(-c4ccc(OC)c(C(=O)Nc5c(F)cccc5F)c4)nc4ccccn34)n2)c(OC)cc1N1CCC(N2CCN(S(C)(=O)=O)CC2)CC1`, the % of inhibition in assay [2] was 68%.

`Nc1cnc(N2CCc3cc(S(=O)(=O)Nc4c(F)cc(Cl)cc4F)cc(N4CCCC4=O)c32)nc1` [TP-020n] registered a % of control in assay [3] of 83%.

`CC(=O)Nc1cccc(-n2c(=O)n(C3CC3)c(=O)c3c(Nc4ccc(I)cc4F)n(C)c(=O)c(C)c32)c1` yielded a % of control in assay [4] of 101%.

For the compound `Cc1cc(F)c(C(=O)Nc2cccc(-c3nncn3C(C)C)n2)cc1-n1cnc(C2CC2)c1`, the % of control in [5] worked out at 94%.

In the case of `C=CC(=O)Nc1cc(-n2c(=O)ccc3cnc4ccc(-c5ccc(NS(C)(=O)=O)cc5)cc4c32)ccc1C`, the % of control in assay [6] (at 1 µM) was 100%; in assay [6] (at 10 µM) it was 77%.

In assay [7], `CNC(=O)Nc1ccc(-c2nc(N3CC4CCC(C3)O4)c3cnn(C4CCC5(CC4)OCCO5)c3n2)cc1` gave a % of inhibition of 1%.

In the case of `COCC(=O)NC/C=C/c1ccc2ncnc(Nc3ccc(Oc4ccc(C)nc4)c(C)c3)c2c1` [CP-724714], the % of control in assay [8] came to 9.4%.

In [9], `CN1Cc2nccc(-c3cn(C)nc3-c3ccc(F)cc3)c2C1=O` displayed a % of inhibition of 12%.
